# Measured values published in PubChem BioAssay (NCI).
#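 Values below derive from 48-hour exposures of cells grown in 96-well plates, with endpoints linearly interpolated between the two concentrations bracketing the appropriate inhibition level. Abbreviation: GI50, concentration required for 50% inhibition of growth. Definition used: TGI = concentration required for complete inhibition of growth.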
# Columns and labels:
# Assay in all cases: NCI tumour cell line growth inhibition, 48 h
# [1] = system: NCI-H23 lung
# [2] = system: MOLT-4 leukemia
# [3] = system: DU-145 prostate
# [4] = system: DMS 273 small cell lung
# [5] = system: LXFL 529 NSCLC
# [6] = system: HOP-18 NSCLC
# [7] = system: M19-MEL melanoma
# [8] = system: DLD-1 colon
# [9] = system: SNB-78 CNS
# [10] = system: KM20L2 colon
# [11] = system: DMS 114 small cell lung
# [12] = system: XF 498 CNS
SMILES,TGI [1] [µM],TGI [2] [µM],TGI [3] [µM],further results
C1CSCCSCCCSC2CCCCC2SC1 (stereo not drawn),> 100,> 100,> 100,
CN(CC(=O)O)c1ncc2c(n1)C=CCC2,> 100,> 100,> 100,
COC(=O)/C=C\C(C#N)(C#N)N=Cc1cccc(OC)c1,16.4,17.7,27.7,
C=CCNC(=S)N1CC(C)C(=O)Nc2cc(Cl)ccc21 (stereo not drawn),> 100,> 100,,TGI [4]: > 100 µM; TGI [5]: > 100 µM; TGI [6]: > 100 µM; TGI [7]: > 100 µM; TGI [8]: > 100 µM; TGI [9]: > 100 µM; TGI [10]: > 100 µM; TGI [11]: > 100 µM
Clc1cccc(-c2sc(-c3ccsc3)cc2Cc2ccsc2)c1,> 10,> 10,> 10,
CCCCCCCCCCCCOP(=O)(O)OP(=O)(O)OCC1OC(n2ccc(N)nc2=O)CC1O (stereo not drawn),> 100,> 100,,
CC(Oc1ccccc1Cl)C(=O)NN1C(=O)CC(=O)N(c2ccccc2)C1=S (stereo not drawn),> 100,> 100,> 100,
COC(=O)C1Cc2ccc(O)c(O)c2CN1 (stereo not drawn),31.8,58.7,81.2,
COc1cc(C2C3=C(COC3=O)Oc3cc4c(cc32)OCO4)ccc1O (stereo not drawn),> 100,> 100,> 100,
Nc1ccc2[nH]c(-c3cccc(C(F)(F)F)c3)cc(=O)c2c1,> 100,> 100,> 100,GI50 [3]: 43.6 µM
COc1cc(CSc2ccc(O)cc2)cc(OC)c1OC,> 100,> 100,> 100,
COC(=O)c1c(C(=O)OC)c2ccccn2c1-c1cc(OC)c(Br)c(=O)o1,> 100,> 100,> 100,
COCCN(CCNC(=O)c1cccc2c(N)c3cccc(C)c3nc12)CCOC,3.53,2.38,9.64,
O=C(Nc1ccc(Cl)cc1C(F)(F)F)C(=O)C1CCCS1(=O)=O (stereo not drawn),> 100,> 100,,TGI [5]: > 100 µM; TGI [6]: > 100 µM; TGI [7]: > 100 µM; TGI [8]: > 100 µM; TGI [9]: > 100 µM; TGI [12]: > 100 µM; TGI [10]: > 100 µM; TGI [11]: > 100 µM
Cc1nc(SCC(=O)Nc2ccc(Cl)cc2)c2sc(=S)n(-c3ccccc3)c2n1,> 10,> 10,> 10,
Cc1c(C)c(C)c(Cn2[nH]c(=O)n(C)c2=O)c(C)c1C,> 100,> 100,> 100,
COc1cc2c(c(OC)c1OC)C(=O)[C@@H]1[C@H]2N1C(=O)NCCCl,> 100,> 100,> 100,
CCOC(=O)NN(C(=O)OCC)C(C(=O)C1=CCCCC1)N(NC(=O)OCC)C(=O)OCC,> 100,> 100,> 100,
C=CC(O)(CBr)CCC(Br)C(=C)C (stereo not drawn),> 10,> 10,> 10,
C[C@]12CCC(=O)C(OC(=O)c3ccc([N+](=O)[O-])cc3)=C1CCC2=O,,> 100,,TGI [4]: > 100 µM; TGI [5]: > 100 µM; TGI [6]: > 100 µM; TGI [7]: > 100 µM; TGI [8]: > 100 µM; TGI [9]: > 100 µM; TGI [10]: > 100 µM; TGI [11]: > 100 µM
CC1(c2sccc2Cl)CC(c2sccc2Cl)=C(C#N)C(=C(C#N)C#N)N1 (stereo not drawn),35.9,> 100,31.2,
COc1ccc(OC)c(NCC(=O)Nn2cnc3ccc(S(=O)(=O)Nc4cc(OC)ccc4OC)cc3c2=O)c1,> 100,> 100,> 100,
NC(N)=NS(=O)(=O)c1ccc(N/N=C2/CCOC2=O)cc1,> 100,> 100,> 100,
O=C(Cc1ccccc1F)NC1=C(Cl)C(=O)c2ccccc2C1=O,3.87,6.47,21.8,TGI [4]: 11.5 µM; TGI [5]: 5.56 µM; TGI [6]: 3.32 µM; TGI [7]: 12.4 µM; TGI [12]: 1.68 µM; TGI [10]: 29.8 µM; TGI [11]: 0.543 µM

SMILES,TGI [1] [µM],TGI [2] [µM],TGI [3] [µM],further results
CC12C3C4C1C1C2C3C41CO (stereo not drawn),,> 100,> 100,
COC(=O)N1CC(=O)C(C(=O)NC23CC4CC(CC(C4)C2)C3)C1 (stereo not drawn),> 100,> 100,> 100,
COc1cccc(C23CCCC(C2)NCC3Br)c1OC (stereo not drawn),> 100,> 100,> 100,
Cc1ccc(C(=O)Nc2ccc(CP(=O)(O)O)cc2)cc1NC(=O)c1cccc(N)c1,> 100,> 100,> 100,
Cc1cc(S(=O)(=O)N2CCNNC2=O)c(S)cc1Cl,,> 100,> 100,
CCOC(=O)/C=C(\C(=O)OCC)n1ccc(=O)n(Cc2cnnn2CCCCOC(C)=O)c1=O,18.5,5.19,36.1,GI50 [2]: 2.23 µM
O=C(O)/C(Cl)=C(\Cl)C(=O)c1ccccc1,> 100,> 100,,TGI [4]: > 100 µM; TGI [5]: > 100 µM; TGI [7]: > 100 µM; TGI [8]: > 100 µM; TGI [9]: > 100 µM; TGI [12]: > 100 µM; TGI [10]: > 100 µM; TGI [11]: > 100 µM
O=C1c2ccccc2C(=O)N1CCSCC(CO)SCCN1C(=O)c2ccccc2C1=O (stereo not drawn),> 100,> 100,> 100,
N#CC(/C(CCC(=O)Nc1ccc(Cl)cc1)=N/NC(=O)c1cc2ccccc2cc1O)c1ccccc1 (stereo not drawn),> 100,94.9,,TGI [5]: > 100 µM; TGI [6]: 89.8 µM; TGI [7]: > 100 µM; TGI [8]: > 100 µM; TGI [9]: > 100 µM; TGI [12]: > 100 µM; TGI [10]: > 100 µM; TGI [11]: 87.7 µM
COC(=O)C1CCC(=O)N1C(c1cc(OC)c(OC)c(OC)c1)c1cc(OC)c(OC)c(OC)c1 (stereo not drawn),,> 100,> 100,
O=P1(c2ccccc2)c2ccccc2-c2ccccc21,> 100,> 100,> 100,
Oc1ccc([C@H]2c3c(O)cc(O)cc3C3c4c(cc(O)cc4[C@@H]2[C@H]2c4cc(O)cc5c4C(c4cc(O)cc(O)c4[C@@H]2c2ccc(O)cc2)[C@@H](c2ccc(O)cc2)O5)O[C@@H]3c2ccc(O)cc2)cc1 (stereo partly drawn),> 100,> 100,> 100,
CC(=O)Oc1cc(S(=O)(=O)Nc2n[nH]c(Nc3ccc(C)cc3)n2)c(S)cc1Cl,> 100,> 100,> 100,
COC(=O)C1CCC(=S)N1C(=O)OCc1ccccc1 (stereo not drawn),> 100,> 100,> 100,
CCOC(=O)C(NC(=O)c1ccccc1)(Nc1ccc(S(=O)(=O)Nc2ncccn2)cc1)C(F)(F)F (stereo not drawn),> 100,> 100,> 100,
O=C(/C=C\c1cccc2ccccc12)c1ccc(F)cc1,45.1,74.2,,TGI [4]: 29.4 µM; TGI [5]: 30.8 µM; TGI [6]: 28.2 µM; TGI [7]: 39.4 µM; TGI [8]: 37.6 µM; TGI [9]: 38.5 µM; TGI [10]: 31.1 µM; TGI [11]: 29.5 µM
N#CC1(C#N)NC(c2ccccc2)C(C#N)(C#N)NC1c1ccccc1 (stereo not drawn),> 100,> 100,> 100,
COc1ccccc1Cc1ccc(C2C=CC3(CC(=O)C=C3C)C(=O)C2)o1 (stereo not drawn),58.3,34.1,> 100,
NS(=O)(=O)c1nnc(NC(=O)C23CC4CC(CC(C4)C2)C3)s1,> 100,> 100,> 100,
CCOP(=O)(OCC)/C(C#N)=C/c1cccn1C(C)C,> 100,> 100,> 100,
NNC(=O)CC(=O)Nc1cccc(Cl)c1,> 100,> 100,> 100,
O=C(CN(C(=O)OC12CC3CC(CC(C3)C1)C2)C(=O)OC12CC3CC(CC(C3)C1)C2)Oc1ccc([N+](=O)[O-])cc1,> 100,> 100,,
S=C(N/N=C(\c1ccccc1)c1ccccn1)NC1CCCCC1,> 100,> 100,> 100,
CC(=O)Nc1ccc2nc(-c3ccccn3)c(-c3ccccn3)nc2c1,,> 100,> 100,

SMILES,TGI [1] [µM],TGI [2] [µM],TGI [3] [µM],further results
Cc1cc(Cl)nc2nc(Cl)c(N)cc12,23.4,> 22.6,18,
CCNC(=O)c1cc(Cl)ccc1NC(=O)C12CC3CC(CC(C3)C1)C2,> 100,> 100,88.9,
S=C(NCCc1ccccn1)N/N=C/c1ccccn1,,,> 100,
CC(=O)OC(CC1(C)C(C)CCC23COC(=O)C2=CCCC31)c1ccoc1 (stereo not drawn),54.5,90.3,,TGI [5]: 38.9 µM; TGI [7]: > 100 µM; TGI [8]: > 100 µM; TGI [9]: 70.4 µM; TGI [12]: 44.6 µM; TGI [10]: 58.7 µM; TGI [11]: > 100 µM
CCOC(=O)c1nc2ccc(C(F)(F)F)cc2nc1Nc1cc(OC)c(OC)c(OC)c1,> 100,> 100,> 100,
COc1cc(C)c(/C=C2/N=C(c3ccccc3)OC2=O)c([N+](=O)[O-])c1OC,> 100,> 100,> 100,
COC(=O)c1cc(C(=O)OC)c(CC(=O)C(=O)NC2C3CC4CC(C3)CC2C4)nc1CC(=O)C(=O)NC1C2CC3CC(C2)CC1C3 (stereo not drawn),> 100,> 100,,TGI [4]: > 100 µM; TGI [5]: > 100 µM; TGI [6]: > 100 µM; TGI [7]: > 100 µM; TGI [8]: > 100 µM; TGI [9]: > 100 µM; TGI [10]: > 100 µM; TGI [11]: > 100 µM
Clc1cc2nn(C3CCCCO3)nc2cc1Cl (stereo not drawn),> 100,> 100,> 100,
O=C1CSC(c2c[nH]c3ccccc23)N1c1ccc(Cl)cc1 (stereo not drawn),> 100,> 100,> 100,
O=[N+]([O-])C(/C=C(\Cl)[N+](=O)[O-])=C1Nc2ccccc2N1,> 100,> 100,> 100,
CSC1(C)C(=O)Nc2c(OCc3ccccc3)cc([N+](=O)[O-])cc21 (stereo not drawn),> 100,> 100,> 100,
CCCCn1c(CSc2ccc(Cl)cc2)c(C(=O)OCC)c2cc(OC)c(Br)cc21,> 100,> 100,> 100,
N/N=C1\C(=O)N(Cc2ccccc2)C(=O)C1C(=O)NCc1ccccc1 (stereo not drawn),> 100,> 100,,TGI [5]: > 100 µM; TGI [6]: > 100 µM; TGI [7]: > 100 µM; TGI [8]: > 100 µM; TGI [9]: > 100 µM; TGI [10]: > 100 µM; TGI [11]: > 100 µM
CSC1NC(c2ccccc2)=C(C#N)C(=O)N1C1OCC(OC(C)=O)C(OC(C)=O)C1OC(C)=O (stereo not drawn),> 100,> 100,> 100,
COc1ccc(/C=C/C(=O)/C=C/c2ccc(OC)cc2OC)c(OC)c1,43,40,35.3,
COc1ccc([N+](=O)[O-])c2c(NCCCN(C)C)ccnc12,6.19,8.12,29.1,
c1cc(-c2ccc(-c3ccc(-c4ccc(-c5ccncc5)o4)cc3)o2)ccn1,39.1,25.7,28.2,
CC(O)C1(CNc2cc(Cl)nc(N)n2)CCCCC1 (stereo not drawn),> 100,> 100,> 100,
N#CCc1c(-c2ccccc2)n(S(=O)(=O)c2ccccc2)c2ccccc12,> 100,> 100,,TGI [4]: > 100 µM; TGI [5]: > 100 µM; TGI [7]: > 100 µM; TGI [8]: > 100 µM; TGI [12]: > 100 µM; TGI [10]: > 100 µM; TGI [11]: > 100 µM
COc1ccc(/C(C)=N/NC(=O)c2ccncc2)c(OC)c1,> 10,> 10,> 10,
CC1CN=C(NS(=O)(=O)c2cc(C(=O)Nc3ccc(Cl)cc3)c(Cl)cc2S)NN1 (stereo not drawn),> 100,> 100,> 100,
Cc1ccc(C2(c3ccc(Cl)cc3)c3ccccc3C3=NCCN32)cc1 (stereo not drawn),32,20.9,26.1,
Cc1ccc(-c2nc3ccccc3c(=O)n2NCC2(O)OCC(O)C(O)C2O)cc1 (stereo not drawn),> 100,> 100,,TGI [4]: > 100 µM; TGI [5]: > 100 µM; TGI [7]: > 100 µM; TGI [9]: > 100 µM; TGI [10]: > 100 µM; TGI [11]: > 100 µM
COc1cc(-c2nc3ccc(N4CCN(C)CC4)cc3[nH]2)c(OC)c2[nH]c(COC(C)=O)nc12,> 100,> 100,95.5,
